Results from PubChem BioAssay (NCI).
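These data come from cells grown in 96-well plates and exposed to compound for 48 hours at five concentrations. The concentration for 50% growth inhibition is given as GI50. TGI: concentration producing complete growth inhibition.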

What was measured:
Assay in all cases: NCI-60 cell line screen, 48 h
[1] = system: 786-0 renal
[2] = system: A498 renal
[3] = system: A549 NSCLC
[4] = system: ACHN renal
[5] = system: BT-549 breast
[6] = system: CCRF-CEM leukemia
[7] = system: COLO 205 colon
[8] = system: DU-145 prostate
[9] = system: EKVX NSCLC
[10] = system: HCC-2998 colon
[11] = system: HCT-116 colon
[12] = system: HCT-15 colon
[13] = system: HL-60(TB) leukemia
[14] = system: HOP-62 NSCLC
[15] = system: HOP-92 NSCLC
[16] = system: HS 578T breast
[17] = system: HT29 colon
[18] = system: KM12 colon
[19] = system: LOX IMVI melanoma
[20] = system: M14 melanoma
[21] = system: MALME-3M melanoma
[22] = system: MCF7 breast
[23] = system: MDA-MB-231 breast
[24] = system: MOLT-4 leukemia
[25] = system: NCI-H226 lung
[26] = system: NCI-H23 lung
[27] = system: NCI-H460 lung
[28] = system: NCI/ADR-RES ovarian
[29] = system: OVCAR-4 ovarian
[30] = system: OVCAR-5 ovarian
[31] = system: OVCAR-8 ovarian
[32] = system: PC-3 prostate
[33] = system: RPMI-8226 leukemia
[34] = system: RXF 393 renal
[35] = system: SF-268 CNS
[36] = system: SF-539 CNS
[37] = system: SK-MEL-2 melanoma
[38] = system: SK-MEL-28 melanoma
[39] = system: SK-MEL-5 melanoma
[40] = system: SK-OV-3 ovarian
[41] = system: SN12C renal
[42] = system: SNB-19 CNS
[43] = system: SNB-75 CNS
[44] = system: SR leukemia
[45] = system: SW-620 colon
[46] = system: T-47D breast
[47] = system: TK-10 renal
[48] = system: U251 CNS
[49] = system: UACC-257 melanoma
[50] = system: UACC-62 melanoma

## O=C(c1ccc2ccccc2c1)c1c(C(F)(F)F)n([O-])c2ccc(F)cc2[n+]1=O
[1]
  GI50: 1570 nM
  TGI: 3010 nM
[2]
  GI50: 6900 nM
  TGI: 21000 nM
[3]
  GI50: 1800 nM
  TGI: 3410 nM
[4]
  GI50: 1680 nM
  TGI: 3040 nM
[5]
  GI50: 1750 nM
  TGI: 3220 nM
[6]
  GI50: 1600 nM
  TGI: 5260 nM
[7]
  GI50: 188 nM
  TGI: 425 nM
[8]
  GI50: 1680 nM
  TGI: 3120 nM
[9]
  GI50: 1800 nM
  TGI: 3350 nM
[10]
  GI50: 892 nM
  TGI: 2120 nM
[11]
  GI50: 1500 nM
  TGI: 2970 nM
[12]
  GI50: 354 nM
  TGI: 1260 nM
[13]
  GI50: 266 nM
  TGI: 2230 nM
[14]
  GI50: 1910 nM
  TGI: 3390 nM
[15]
  GI50: 1210 nM
  TGI: 2950 nM
[16]
  GI50: 1980 nM
  TGI: 4770 nM
[17]
  GI50: 1360 nM
  TGI: 3020 nM
[18]
  GI50: 673 nM
  TGI: 2460 nM
[19]
  GI50: 394 nM
  TGI: 1660 nM
[20]
  GI50: 1670 nM
  TGI: 3110 nM
[21]
  GI50: 397 nM
  TGI: 2300 nM
[22]
  GI50: 1430 nM
  TGI: 3310 nM
[23]
  GI50: 1480 nM
  TGI: 3020 nM
[24]
  GI50: 393 nM
  TGI: 1970 nM
[25]
  GI50: 1960 nM
  TGI: 3970 nM
[26]
  GI50: 574 nM
  TGI: 1910 nM
[27]
  GI50: 1830 nM
  TGI: 3680 nM
[28]
  GI50: 2100 nM
  TGI: 4570 nM
[29]
  GI50: 1670 nM
  TGI: 3220 nM
[30]
  GI50: 1780 nM
  TGI: 3180 nM
[31]
  GI50: 324 nM
  TGI: 1210 nM
[32]
  GI50: 1550 nM
  TGI: 3390 nM
[33]
  GI50: 997 nM
  TGI: 3930 nM
[34]
  GI50: 283 nM
  TGI: 958 nM
[35]
  GI50: 1730 nM
  TGI: 3370 nM
[36]
  GI50: 1880 nM
  TGI: 3320 nM
[37]
  GI50: 1200 nM
  TGI: 2820 nM
[38]
  GI50: 1680 nM
  TGI: 3180 nM
[39]
  GI50: 1750 nM
  TGI: 3160 nM
[40]
  GI50: 2160 nM
  TGI: 5050 nM
[41]
  GI50: 1290 nM
  TGI: 2740 nM
[42]
  GI50: 1510 nM
  TGI: 3020 nM
[43]
  GI50: 1470 nM
  TGI: 2820 nM
[44]
  GI50: 277 nM
  TGI: 1490 nM
[45]
  GI50: 1500 nM
  TGI: 3200 nM
[46]
  GI50: 1560 nM
  TGI: 4050 nM
[47]
  GI50: 1580 nM
  TGI: 3020 nM
[48]
  GI50: 1470 nM
  TGI: 2810 nM
[49]
  GI50: 1740 nM
  TGI: 3200 nM
[50]
  GI50: 1600 nM
  TGI: 2950 nM
